Measurements published in patent US8003649B2 (AstraZeneca AB, priority 2007, dated 2011).

What follows are molecules tested against T1, Androgen Receptor (AR) (Homo sapiens, UniProt P10275, T878A) (assay: LNCaP Androgen Receptor Down-regulation Cell Assay (immunofluorescence end point)). Conditions: LNCaP prostate carcinoma cells, compound incubation 20-22 hours, 50% reduction of the AR signal; read-out: Androgen Receptor Down-regulation Assay (a) IC50/μM.
T1 construct: cell based immuno-fluorescence assay using the LNCaP prostate epithelial cell line; endogenous in cells; host or cells: LNCaP clone FGC (ATCC CRL-1740)
T1 sequence (P10275 1-920 T878A): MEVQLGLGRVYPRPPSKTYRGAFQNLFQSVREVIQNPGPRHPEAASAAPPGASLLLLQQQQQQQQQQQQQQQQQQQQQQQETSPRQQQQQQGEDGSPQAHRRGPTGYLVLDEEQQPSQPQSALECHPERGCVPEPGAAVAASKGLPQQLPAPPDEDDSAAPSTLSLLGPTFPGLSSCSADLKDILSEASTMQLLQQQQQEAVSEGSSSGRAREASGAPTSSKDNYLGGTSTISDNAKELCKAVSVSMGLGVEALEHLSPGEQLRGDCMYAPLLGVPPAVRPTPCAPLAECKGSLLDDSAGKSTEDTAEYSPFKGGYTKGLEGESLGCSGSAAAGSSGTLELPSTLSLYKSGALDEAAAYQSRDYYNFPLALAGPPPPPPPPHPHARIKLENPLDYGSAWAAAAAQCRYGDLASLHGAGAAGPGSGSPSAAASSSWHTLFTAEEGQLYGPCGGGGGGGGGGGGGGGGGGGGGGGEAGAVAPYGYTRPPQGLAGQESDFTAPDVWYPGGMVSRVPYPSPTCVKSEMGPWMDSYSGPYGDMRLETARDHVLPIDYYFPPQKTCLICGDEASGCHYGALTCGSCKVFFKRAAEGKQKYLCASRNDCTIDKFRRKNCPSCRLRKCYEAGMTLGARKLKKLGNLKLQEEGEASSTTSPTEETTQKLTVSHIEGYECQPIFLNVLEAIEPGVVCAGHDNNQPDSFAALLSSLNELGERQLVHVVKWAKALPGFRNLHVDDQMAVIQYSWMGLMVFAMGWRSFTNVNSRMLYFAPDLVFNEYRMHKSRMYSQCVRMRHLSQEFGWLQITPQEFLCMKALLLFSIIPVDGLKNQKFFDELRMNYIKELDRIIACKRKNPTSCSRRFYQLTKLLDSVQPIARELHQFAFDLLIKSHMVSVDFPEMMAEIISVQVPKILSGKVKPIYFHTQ
Format: cell-based
Method in brief: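 AR loss reported as IC50 from curve fits of fluorescence dose-response data, with AR immunostained and read by laser-scanning cytometry. Compound exposure was 20-22 h at 37° C in LNCaP cells grown in 5% charcoal-stripped FBS and plated overnight beforehand.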

Going from `FC(F)(F)c1nnc2ccc(N3CCN(Cc4nc5ccccc5o4)CC3)nn12` [Example 49, 6-[4-(1,3-benzoxazol-2-ylmethyl)piperazin-1-yl]-3-(trifluoromethyl)-[1,2,4]triazolo[4,3-b]pyridazine] to `Cn1cc(CN2CCN(c3ccc4nnc(C(F)(F)F)n4n3)CC2)c2ccccc21` [Example 71, 6-[4-[(1-methylindol-3-yl)methyl]piperazin-1-yl]-3-(trifluoromethyl)-[1,2,4]triazolo[4,3-b]pyridazine], the DC50 falls from 3.2 µM to 1.4 µM (2.3-fold).

Compared with `CC1CN(Cc2ccccc2)CCN1c1ccc2nnc(C(F)(F)Cl)n2n1` (stereo not shown) [Example 352, 6-(4-benzyl-2-methylpiperazin-1-yl)-3-[chloro(difluoro)methyl][1,2,4]triazolo[4,3-b]pyridazine], `C[C@@H]1CN(Cc2cccnc2)CCN1c1ccc2nnc(C(F)(F)F)n2n1` [Example 599, 6-[(2R)-2-methyl-4-(pyridin-3-ylmethyl)piperazin-1-yl]-3-(trifluoromethyl)[1,2,4]triazolo[4,3-b]pyridazine] is 10-fold higher in DC50: 0.57 µM for the first, 5.8 µM for the second.

Compared with `N#Cc1ccc2[nH]cc(CN3CCN(c4ccc5nnc(C(F)(F)F)n5n4)CC3)c2c1` [Example 278], `FC(F)(F)c1nnc2ccc(N3CCN(Cc4c[nH]c5ccncc45)CC3)nn12` [Example 480] is 15-fold higher in DC50: 0.65 µM for the first, 9.6 µM for the second.

Compared with `FC(F)(F)c1nnc2ccc(N3CCC(Oc4cncc(Br)c4)CC3)nn12` [Example 722], `FC(F)(F)c1nnc2ccc(N3CCC(Oc4ncc(Cl)cn4)CC3)nn12` [Example 714] is higher in DC50: 4.1 µM for the first, over 9.9 µM for the second.

Compared with `FC(F)(F)c1ccccc1OC1CCN(c2ccc3nnc(C(F)(F)F)n3n2)CC1` [Example 653], `FC(F)(F)c1nnc2ccc(N3CCC(Oc4ccccc4Cl)CC3)nn12` [Example 530] is 1.6-fold higher in DC50: 1 µM for the first, 1.6 µM for the second.

`FC(F)(F)c1nnc2ccc(N3CCN(c4ccc(OCCN5CCCC5)cc4)CC3)nn12` [Example 755] and `FC(F)(F)c1nnc2ccc(N3CCC(Oc4ccc(OCCN5CCCC5)cc4)CC3)nn12` [Example 431] are within 1.5-fold of each other in DC50: 2.2 µM for the first, 1.5 µM for the second.

Going from `Cc1ccnc(C2(O)CCN(c3ccc4nnc(C(F)(F)F)n4n3)CC2)c1` [Example 322, 4-(4-methylpyridin-2-yl)-1-[3-(trifluoromethyl)[1,2,4]triazolo[4,3-b]pyridazin-6-yl]piperidin-4-ol] to `O=C1NCN(c2ccccc2)C12CCN(c1ccc3nnc(C(F)(F)F)n3n1)CC2` [Example 20, 1-phenyl-8-[3-(trifluoromethyl)-[1,2,4]triazolo[4,3-b]pyridazin-6-yl]-1,3,8-triazaspiro[4.5]decan-4-one], the DC50 falls from 9.6 µM to 1.8 µM (5.3-fold).

Going from `FC(F)(F)c1nnc2ccc(N3CC[C@@H](Oc4ccncc4)C3)nn12` [Example 577, 6-[(3R)-3-(pyridin-4-yloxy)pyrrolidin-1-yl]-3-(trifluoromethyl)[1,2,4]triazolo[4,3-b]pyridazine] to `FC(F)(F)c1nnc2ccc(N3CCCC(c4ccccc4)C3)nn12` (stereo not shown) [Example 515, 6-(3-phenylpiperidin-1-yl)-3-(trifluoromethyl)[1,2,4]triazolo[4,3-b]pyridazine], the DC50 falls from 5 µM to 1.4 µM (3.6-fold).

First: FC(F)Oc1cccc(CN2CCN(c3ccc4nnc(C(F)(F)F)n4n3)CC2)c1 [Example 162, 6-[4-[[3-(difluoromethoxy)phenyl]methyl]piperazin-1-yl]-3-(trifluoromethyl)-[1,2,4]triazolo[4,3-b]pyridazine]
Second: COc1cccc(CN2CCN(c3ccc4nnc(C(F)(F)F)n4n3)CC2)c1 [Example 82, 6-[4-[(3-methoxyphenyl)methyl]piperazin-1-yl]-3-(trifluoromethyl)-[1,2,4]triazolo[4,3-b]pyridazine]
The DC50 of the first is 1.6-fold lower: 1 µM for the first, 1.6 µM for the second.

Going from `Fc1ccc(CN2[C@@H]3CC[C@H]2CN(c2ccc4nnc(C(F)(F)F)n4n2)C3)cc1` [Example 839] to `N#Cc1cccc(CN2[C@@H]3CC[C@H]2CN(c2ccc4nnc(C(F)(F)F)n4n2)C3)c1` [Example 840], the DC50 rises from 1.1 µM to 2.6 µM (2.4-fold).

Going from `FC(F)(F)c1cccc(CN2CCN(c3ccc4nnc(C(F)(F)F)n4n3)CC2)c1` [Example 95, 3-(trifluoromethyl)-6-[4-[[3-(trifluoromethyl)phenyl]methyl]piperazin-1-yl]-[1,2,4]triazolo[4,3-b]pyridazine] to `FC(F)(Cl)c1nnc2ccc(N3CCN(Cc4cccc(Br)c4)CC3)nn12` [Example 344], the DC50 falls from 0.67 µM to 0.29 µM (2.3-fold).

`O=C(NCCN1CCOCC1)c1ccc(OC2CCN(c3ccc4nnc(C(F)(F)F)n4n3)CC2)cc1` [Example 424] and `O=C(NCCN1CCOCC1)c1ccc(N2CCN(c3ccc4nnc(C(F)(F)F)n4n3)CC2)cc1` [Example 750] are within 1.5-fold of each other in DC50: 2.2 µM for the first, 2.6 µM for the second.

`FC(F)(F)c1nnc2ccc(N3CCN(Cc4ccc(-c5ccccn5)cc4)CC3)nn12` [Example 134, 6-[4-[(4-pyridin-2-ylphenyl)methyl]piperazin-1-yl]-3-(trifluoromethyl)-[1,2,4]triazolo[4,3-b]pyridazine] and `FC(F)(F)c1nnc2ccc(N3CCN(Cc4ccc5[nH]ccc5c4)CC3)nn12` [Example 77, 6-[4-(1H-indol-5-ylmethyl)piperazin-1-yl]-3-(trifluoromethyl)-[1,2,4]triazolo[4,3-b]pyridazine] are within 1.5-fold of each other in DC50: 1.8 µM for the first, 1.4 µM for the second.

Going from `COc1cccc(S(=O)(=O)N2CCN(c3ccc4nnc(C(F)(F)F)n4n3)CC2)c1` [Example 396] to `O=S(=O)(c1ccccc1F)N1CCCN(c2ccc3nnc(C(F)(F)F)n3n2)CC1` [Example 460], the DC50 rises from 1.8 µM to 5.1 µM (2.8-fold).

Compared with `FC(F)(F)c1nnc2ccc(N3CCN(Cc4cncc(Br)c4)CC3)nn12` [Example 774], `FC(F)(F)c1nnc2ccc(N3CCN(Cc4ccc5c(c4)CCO5)CC3)nn12` [Example 84, 6-[4-(2,3-dihydro-1-benzofuran-5-ylmethyl)piperazin-1-yl]-3-(trifluoromethyl)-[1,2,4]triazolo[4,3-b]pyridazine] is 4.4-fold lower in DC50: 8 µM for the first, 1.8 µM for the second.

First: C[C@H](c1ccc(C#N)cc1)N1CCN(c2ccc3nnc(C(F)F)n3n2)CC1 [Example 858, 4-[(1R)-1-[4-[3-(difluoromethyl)-[1,2,4]triazolo[3,4-f]pyridazin-6-yl]piperazin-1-yl]ethyl]benzonitrile]
Second: COc1cc(CN2CCN(c3ccc4nnc(C(F)F)n4n3)CC2)ccc1F [Example 257]
The DC50 of the first is higher: over 33 µM for the first, 9 µM for the second.

Going from `Fc1cccc(CN2CCN(c3ccc4nnc(C(F)(F)F)n4n3)CC(F)(F)C2)c1` [Example 842] to `C[C@H]1CN(c2ccc3nnc(C(F)(F)F)n3n2)CCN1Cc1cccnc1` [Example 570, 6-[(3S)-3-methyl-4-(pyridin-3-ylmethyl)piperazin-1-yl]-3-(trifluoromethyl)[1,2,4]triazolo[4,3-b]pyridazine], the DC50 rises from 1.1 µM to 4.5 µM (4.1-fold).

Going from `CN(CCO)C(=O)c1cccc(OC2CCN(c3ccc4nnc(C(F)(F)F)n4n3)CC2)c1` [Example 685] to `CN(CCS(C)(=O)=O)C(=O)c1ccc(C2CCN(c3ccc4nnc(C(F)(F)F)n4n3)CC2)cc1` [Example 741], the DC50 falls from 5.7 µM to 2.2 µM (2.6-fold).

First: Fc1cncc(C2=CCN(c3ccc4nnc(C(F)(F)F)n4n3)CC2)c1 [Example 607]
Second: COc1ncc(C2CCN(c3ccc4nnc(C(F)(F)F)n4n3)CC2)cc1F [Example 614]
The DC50 of the first is lower: 7.4 µM for the first, over 12 µM for the second.

`Fc1ncc(Br)cc1CN1CC2CN(c3ccc4nnc(C(F)(F)F)n4n3)CC2C1` (stereo not shown) [Example 795] and `FC(F)(F)c1ccc(CN2CC3CN(c4ccc5nnc(C(F)(F)F)n5n4)CC3C2)cc1` (stereo not shown) [Example 199, 3-(trifluoromethyl)-6-[2-[[4-(trifluoromethyl)phenyl]methyl]-1,3,3a,4,6,6a-hexahydropyrrolo[3,4-c]pyrrol-5-yl]-[1,2,4]triazolo[4,3-b]pyridazine] are within 1.5-fold of each other in DC50: 2.4 µM for the first, 1.9 µM for the second.

Compared with `CN1CCN(CC(=O)Nc2cccc(C3CCN(c4ccc5nnc(C(F)(F)F)n5n4)CC3)c2)CC1` [Example 711], `CN1CCN(CCNC(=O)c2ccc(C3CCN(c4ccc5nnc(C(F)(F)F)n5n4)CC3)cc2)CC1` [Example 642] is 1.8-fold lower in DC50: 2.5 µM for the first, 1.4 µM for the second.

First: FC(F)(F)c1nnc2ccc(N3CCN(c4ccc(OCc5ccon5)cc4)CC3)nn12 [Example 757]
Second: O=C(c1cccc(C2CCN(c3ccc4nnc(C(F)(F)F)n4n3)CC2)c1)N1CCNCC1 [Example 646]
The DC50 of the first is higher: over 12 µM for the first, 6.1 µM for the second.

Compared with `COCCNC(=O)c1ccc2[nH]cc(C3CCN(c4ccc5nnc(C(F)(F)F)n5n4)CC3)c2c1` [Example 498], `FC(F)(F)c1ccc(C2CCN(c3ccc4nnc(C(F)(F)Cl)n4n3)C2)cc1` (stereo not shown) [Example 335] is 1.6-fold lower in DC50: 2.4 µM for the first, 1.5 µM for the second.
